Test results reported in patent US20230278997A1, “BICYCLO[1.1.1]PENTANE COMPOUNDS FOR THE TREATMENT AND PROPHYLAXIS OF HEPATITIS B VIRUS INFECTION” (Hoffmann-La Roche Inc., priority 2020, published 2023).
pIC50: −log10 of the molar value. Like-named read-outs stand apart in the source and are kept apart here.

How the values were obtained:
[1] = test system: HBsAg; assay: microbe, parasite or virus in culture; assay type: cell-based, HBV; settings: Hepatitis B virus, read-out: HBsAg IC50
[2] = Human microsome stability assay; assay type: in vitro ADME; settings: 1 μM compound, 0.5 mg/mL microsomal protein, 37° C.; detection limit 6.15 mL/min/kg
[3] = Single dose pharmacokinetics (PK) study in male C57BL/6 mouse; assay type: in vivo; settings: for AUC(0-t): C57BL/6, mouse plasma; for F: PO 30 mg/kg vs IV, dose normalized AUC0-last
Procedure: Single Dose Pharmacokinetics (PK) Study in Male C57BL/6 Mouse Pharmacokinetic properties of selected compounds were assessed by single dose PK studies in Male C57BL/6 mouse (vendor: Beijing Vital River Laboratory Animal Technology Co., Ltd). Briefly, two groups of animals were administered a single dose of respective compound intravenously (IV, bolus) at 1 mg/kg or orally (PO, by gavage) at 10 mg/kg or 30 mg/kg. […] After centrifugation, the resulting plasma was transferred to clean tubes for bioanalysis with LC/MS/MS. The pharmacokinetic parameters were calculated using non-compartmental analysis. The volume of distribution (Vss), half-life (T1/2) and clearance (CL) were obtained based on the plasma concentration-time curve after IV dose. The peak concentration (Cmax) was recorded directly from experimental observations after PO dose. The area under the plasma concentration-time curve (AUC0-last and AUC0-24 h) was calculated using the linear trapezoidal rule up to the last detectable concentration. The bioavailability (F) was calculated based on the dose normalized AUC0-last after IV and PO dose. The Vss of a drug represents the degree to which a drug is distributed in body tissue rather than the plasma. Vss is directly proportional with the amount of drug distributed into tissue. A higher Vss indicates a greater amount of tissue distribution.

[4] = test system: primary human hepatocyte (PHH); assay: Cytotoxicity in PHH natural infection assay (Cell Counting Kit-8); assay type: cell-based; settings: therapeutic index; CC50 by CCK8 in PHH over HBsAg IC50
[5] = test system: HBeAg; assay: microbe, parasite or virus in culture; assay type: cell-based, HBV; settings: Hepatitis B virus, read-out: HBeAg IC50
[6] = Single dose pharmacokinetics (PK) study in male C57BL/6 mouse; assay type: in vivo; settings: IV dose 0.4 mg/kg
[7] = male, PO 30 mg/kg single dose, read-out: PO AUC0-24h
[8] = male, C57BL/6, plasma, mouse, IV bolus 1 mg/kg

Structure (SMILES) | pIC50 [1] | Clearance of human microsome [2] | AUC(0-t) [3, 7] | F ([3]; mouse) | TI (CC50/IC50 HBsAg) [4] | pIC50 [5] | AUC(0-t) ([6]; C57BL/6, mouse plasma, AUC value is dose-normalized, read-out: IV AUC0-24h) | clearance ([6]; C57BL/6, plasma, mouse) | half-life ([6]; C57BL/6, plasma, mouse) | Vd ([6]; C57BL/6, plasma, mouse, read-out: VSS) | clearance [3, 8] | half-life [3, 8] | Vd ([3]; male, C57BL/6, plasma, mouse, IV bolus 1 mg/kg, read-out: VSS) | AUC(0-t) ([3]; male, IV bolus 1 mg/kg, read-out: IV AUC0-24h)
CS(=O)(=O)C1(c2nsc(C(=O)NC34CC(c5nc(-c6ccc(Cl)cc6)no5)(C3)C4)n2)CC1 [Example 34, N-[3-[3-(4-chlorophenyl)-1,2,4-oxadiazol-5-yl]-1-bicyclo[1.1.1]pentanyl]-3-(1-methylsulfonylcyclopropyl)-1,2,4-thiadiazole-5-carboxamide] | 7.70 | ≤6.15 mL/min/kg | 270 µg·h/mL | 39% | 181.50 | 7.70 | 24.2 µg·h/mL | 0.03 mL/min/kg | > 40 h | 0.93 L/kg | – | – | – | –
CS(=O)(=O)C1(c2ccc(C(=O)NC34CC(c5nc(-c6ccc(Cl)cc6)no5)(C3)C4)o2)CC1 [Example 32, N-[3-[3-(4-chlorophenyl)-1,2,4-oxadiazol-5-yl]-1-bicyclo[1.1.1]pentanyl]-5-(1-methylsulfonylcyclopropyl)furan-2-carboxamide] | 7.40 | ≤6.15 mL/min/kg | 249 µg·h/mL | 35% | 112.00 | 7.40 | – | – | – | – | 0.43 mL/min/kg | 17.8 h | 0.64 L/kg | 24.1 µg·h/mL
